Key:
[1] = system: MJD84.2 transgenic mice (SCA3 mice); assay: Rotarod test in SCA3 mice; assay type: in vivo; details: BP 100 or 500 mg/kg/bid, ligustilide 100 mg/kg/bid, 4 to 40 rpm within 300 seconds, FIG. 6
Experimental: (§1) MJD84.2 transgenic mice (i.e., the mice being transfected with ATXN3 gene with human 84 CAG repeat sequence, hereinafter referred to as “SCA3 mice”) were used in this experiment. MJD84.2 transgenic mice were an animal model used for studying spinal cerebellar atrophy.
(§2) The MJD84.2 transgenic mice of two weeks of age were randomly divided into five groups, each group had six mice. The mice were treated with the following conditions for two weeks: (1) untreated group; (2) treated with olive oil (i.e., only treated with the adjuvant); (3) treated with 100 mg/kg/bid (bis in die) of BP; (4) treated with 500 mg/kg/bid of BP; (5) treated with 100 mg/kg/bid of ligustilide. The wild type mice (WT) was used as a control group. After 2 weeks, local motor and rotarod test were conducted.
Rotarod test was performed to test the balance and grip ability of mice. The mice were given practice two weeks before the first behavioral test. The experiment was conducted using an IITC rotarod (IITC Life Science Inc, USA).
10-week-old mice were tested on a rotarod once every three weeks. The test condition was set as a linear acceleration from 4 to 40 rpm within 300 seconds. The time (sec) that the mice fell from the rotarod (i.e., latency to fall) was recorded. […] After the rotarod test, the body weight of the mice were recorded. […]

[2] = system: GFP-ATXN3 protein (Ataxin3Q84); assay: In vitro cell test: GFP-ATXN3 fluorescence in transfected cells; assay type: cell-based, human; details: 5 μg/ml, 24 hours; HEK 293T or neural stem cells transfected with pEGFP-C1-Ataxin3Q84; FIG. 1
Experimental: In this experiment, the effects of BP and ligustilide on the protein expression level of SCA3 protein were analyzed. First, pEGFP-C1-Ataxin3Q84 plasmid (i.e., a plasmid comprising Ataxin gene with abnormal CAG repeat number (84Q)) containing green fluorescent protein or pEGFP-C1-Ataxin3Q28 plasmid (i.e., a plasmid comprising Ataxin gene with normal CAG repeat number (28Q)) (Addgene company, U.S.) was transfected into human embryonic kidney (HEK) cells 293T (Bioresource Collection and Research Center, Taiwan) or neural stem cells (NSC). The cells were then cultured in a DMEM medium (Dulbecco's modified Eagle's medium, Thermo) containing 10% fetal bovine serum (Gibco), and incubated in an incubator with 5% CO2 at 37° C. Then, the cells were treated with 5 μg/ml BP (A10353, purchased from Alfa Aesar, U.S.; with a purity of 95%) or ligustilide (5393-015M1, purchased from Pharmaron, China) for 24 hours. The protein aggregation of GFP-ATXN3 protein in the cells of each group was observed by a fluorescence microscopy. Wild type cells and cells transfected with green fluorescent protein (GFP) were used as the control group.

zebrafish = assay: Zebrafish safe dose test (survival rate); assay type: in vivo; details: for survival rate of the zebrafishes: after 48 hours, 28.5° C., FIG. 2
Experimental: In this experiment, the zebrafishes that were used as the animal models in the experimental group were Tg (HuC:GFP), which is characterized by its primary sensory neurons (Rohon-Beard cells) that can produce fluorescence. The zebrafishes used in the control group were wild type zebrafishes. All of the zebrafishes were provided by TZCAS (Taiwan Zebrafish Core Facility at Academia Sinica, Taiwan) and TZCF (Taiwan Zebrafish Core Facility, Taiwan). First, the toxicity of BP to zebrafish was tested by injecting different dose of BP to zebrafishes. The zebrafishes were then kept at 28.5° C. After 48 hours, the survival rate of the zebrafishes was observed.
The survival rate of the zebrafishes treated with 500 mg/kg BP was 50%, and both of the survival rates of the zebrafishes treated with 250 mg/kg and 50 mg/kg BP were greater than 75%.

[3] = system: zebrafishes injected with ATXN3 MO; assay: Zebrafish behavioral test (tail stimulation); assay type: in vivo; details: FIG. 3
Experimental: Morpholinos (MO) was produced by modifying the structure of a fragment of DNA, which can block protein translation process of mRNA to inhibit the expression of a target protein. The ATXN3 MO used in this experiment has a sequence of 5′-[…]-3′ (SEQ ID NO. 1), and the standard used in the control group is 5′-[…]-3′ (SEQ ID NO. 2) (hereinafter referred to as “Ct MO”). Before injection, the MO was dissolved in ddH2O, stored at −20° C. for used. Zebrafish eggs were micro-injected within about one hour after birth. After 21 to 48 hours post fertilization (hpf), the zebrafish eggs were micro-injected with ATXN3 MO or ATXN3 MO in combination with 250 mg/kg BP, 125 mg/kg BP or 62.5 mg/kg BP. After 48 hours, the fish tails were stimulated by tips, and the number of stimulation causing movement of the fish tails was measured.

[4] = system: motor neurons of zebrafishes treated with ATXN3 MO; assay: Zebrafish confocal microscopy test of motor neurons; assay type: in vivo; details: 250 mg/kg BP with ATXN3 MO, after 48 hours; FIG. 4
Experimental: Zebrafish eggs were micro-injected with 300 nM/μl ATXN3 MO, 250 mg/kgBP, or ATXN3 MO in combination with 250 mg/kgBP, 125 mg/kg BP or 62.5 mg/kgBP. After 48 hours, the zebrafishes were enclosed in glass slides. The motor neurons in the living body were recorded by a confocal fluorescence microscopy.
The data shown in FIG. 4 was obtained by 100%*(the number of the survived zebrafishes/total number of the zebrafishes).

Purkinje cells = assay: Immunohistochemistry staining of cerebellar slices; assay type: in vivo; details: cerebellum slices of SCA3 mice; BP 100 or 500 mg/kg/bid, ligustilide 100 mg/kg/bid; sacrificed at 20 and 24 weeks; FIG. 7
Experimental: (§3) The MJD84.2 transgenic mice (i.e., the mice with modified ATXN3 gene) of eight weeks of age were randomly divided into five groups, with six mice in each group. The mice were treated with the following conditions: (1) untreated group; (2) treated with olive oil; (3) treated with 100 mg/kg/bid of BP; (4) treated with 500 mg/kg/bid of BP; (5) treated with 100 mg/kg/bid of ligustilide. Then, the mice were sacrificed at the age of 20 weeks and 24 weeks. Cerebellar slices staining and tissue protein extraction were performed (see Example 5). Whole brain tissue of the mice was fixed overnight with 3.7% formalin and embedded in paraffin. The samples were sectioned (4 μm) by using a Quanto kit (Thermo, USA) and mounted on a microscope slide.

ubiquitin = assay: Western blotting of cerebellum proteins, anti-ubiquitin antibody; assay type: in vivo; details: cerebellum tissue of SCA3 mice treated with BP; FIG. 9
Experimental: as §3
The cerebellums of the mice sacrificed in example 4 were separated from the whole brain, and the proteins in the cerebellums were extracted. The purified proteins were analyzed by Western blotting assay using an anti-ubiquitin antibody and an anti-calbindin antibody, respectively, to determine the changes in the protein expression level of ubiquitin and calbindin in the cerebellum tissue of SCA3 mice in each group. β-actin was used as an internal control group. […]

[5] = system: MJD84.2 transgenic mice (SCA3 mice); assay: Local motor test in SCA3 mice; assay type: in vivo; details: BP 100 or 500 mg/kg/bid, ligustilide 100 mg/kg/bid; for total moving distance vs untreated group and group fed with olive oil: FIG. 5A; for moving times (moving number) vs untreated group and group fed with olive oil: FIG. 5B; for moving time vs untreated group and group fed with olive oil: FIG. 5C
Experimental: as §1, §2
Local motor test was performed to test the exercise ability of mice. 10-week-old mice were tested on rotarod once every three weeks. Then, the mice were placed in a transparent acrylic box 2 hours and were free to move. A behavioral test was conducted for 1 hour by using VersaMax 420 (AccuscanInstrumentsInc, USA), and the data was analyzed by statistical methods.

calbindin = assay: Western blotting of cerebellum proteins, anti-calbindin antibody; assay type: in vivo; details: cerebellum tissue of SCA3 mice; BP 100 or 500 mg/kg/bid, ligustilide 100 mg/kg/bid; FIG. 8
Experimental: as §3
The cerebellums of the mice sacrificed in example 4 were separated from the whole brain, and the proteins in the cerebellums were extracted. The purified proteins were analyzed by Western blotting assay using an anti-ubiquitin antibody and an anti-calbindin antibody, respectively, to determine the changes in the protein expression level of ubiquitin and calbindin in the cerebellum tissue of SCA3 mice in each group. β-actin was used as an internal control group.
It has been known that calbindin is a marker of Purkinje cells.

| SMILES | balance and grip ability (rotarod, latency to fall) vs untreated group and group fed with olive oil [1] | fluorescent signal of Ataxin3Q84 in the cells vs untreated groups [2] | survival rate of the zebrafishes (zebrafish; 50 mg/kg BP injected) | survival rate of the zebrafishes (zebrafish; 250 mg/kg BP injected) | survival rate of the zebrafishes (zebrafish; 500 mg/kg BP injected) | safe dose for zebrafish (zebrafish; from survival rate after 48 hours) | amount of stimulation causing the movement of fish tails ([3]; ATXN3 MO in combination with 250, 125 or 62.5 mg/kg BP, after 48 hours, vs ATXN3 MO alone) | restoring of behavioral ability of the diseased zebrafishes, comparison of doses ([3]; BP of 250 mg/kg, compared with 125 and 62.5 mg/kg) | number of motor neurons [4] | number of the Purkinje cells vs untreated group and group fed with olive oil (Purkinje cells) | content of the ubiquitination proteins vs untreated group and group fed with olive oil (ubiquitin) | total moving distance vs untreated group and group fed with olive oil [5] | moving times (moving number) vs untreated group and group fed with olive oil [5] | moving time vs untreated group and group fed with olive oil [5] | protein expression level of calbindin vs untreated group and group fed with olive oil (calbindin) |
| --- | --- | --- | --- | --- | --- | --- | --- | --- | --- | --- | --- | --- | --- | --- | --- |
| CCCC=C1OC(=O)c2ccccc21 [BP, n-butylidenephthalide] | better | significantly lower | greater than 75% | greater than 75% | 50% | lower than 250 mg/kg | restored (i.e., decreased) | the most obvious effect | can maintain the number of motor neurons | significantly higher | significantly higher | higher | higher | higher | significantly higher |
| CCC/C=C1\OC(=O)C2=C1CCC=C2 [ligustilide, 3-butylidene-4,5-dihydrophthalide] | better | significantly lower | – | – | – | – | – | – | – | significantly higher | – | higher | higher | higher | significantly higher |
